The target in the test is human Nav1.8 (Homo sapiens (Human), UniProt Q9Y5Y9). Put plainly: E-VIPR optical membrane potential assay with electrical stimulation. Type of test: cell-based. As to conditions: HEK cells expressing human Nav1.8.
Sequence of human Nav1.8 (Q9Y5Y9 whole entry): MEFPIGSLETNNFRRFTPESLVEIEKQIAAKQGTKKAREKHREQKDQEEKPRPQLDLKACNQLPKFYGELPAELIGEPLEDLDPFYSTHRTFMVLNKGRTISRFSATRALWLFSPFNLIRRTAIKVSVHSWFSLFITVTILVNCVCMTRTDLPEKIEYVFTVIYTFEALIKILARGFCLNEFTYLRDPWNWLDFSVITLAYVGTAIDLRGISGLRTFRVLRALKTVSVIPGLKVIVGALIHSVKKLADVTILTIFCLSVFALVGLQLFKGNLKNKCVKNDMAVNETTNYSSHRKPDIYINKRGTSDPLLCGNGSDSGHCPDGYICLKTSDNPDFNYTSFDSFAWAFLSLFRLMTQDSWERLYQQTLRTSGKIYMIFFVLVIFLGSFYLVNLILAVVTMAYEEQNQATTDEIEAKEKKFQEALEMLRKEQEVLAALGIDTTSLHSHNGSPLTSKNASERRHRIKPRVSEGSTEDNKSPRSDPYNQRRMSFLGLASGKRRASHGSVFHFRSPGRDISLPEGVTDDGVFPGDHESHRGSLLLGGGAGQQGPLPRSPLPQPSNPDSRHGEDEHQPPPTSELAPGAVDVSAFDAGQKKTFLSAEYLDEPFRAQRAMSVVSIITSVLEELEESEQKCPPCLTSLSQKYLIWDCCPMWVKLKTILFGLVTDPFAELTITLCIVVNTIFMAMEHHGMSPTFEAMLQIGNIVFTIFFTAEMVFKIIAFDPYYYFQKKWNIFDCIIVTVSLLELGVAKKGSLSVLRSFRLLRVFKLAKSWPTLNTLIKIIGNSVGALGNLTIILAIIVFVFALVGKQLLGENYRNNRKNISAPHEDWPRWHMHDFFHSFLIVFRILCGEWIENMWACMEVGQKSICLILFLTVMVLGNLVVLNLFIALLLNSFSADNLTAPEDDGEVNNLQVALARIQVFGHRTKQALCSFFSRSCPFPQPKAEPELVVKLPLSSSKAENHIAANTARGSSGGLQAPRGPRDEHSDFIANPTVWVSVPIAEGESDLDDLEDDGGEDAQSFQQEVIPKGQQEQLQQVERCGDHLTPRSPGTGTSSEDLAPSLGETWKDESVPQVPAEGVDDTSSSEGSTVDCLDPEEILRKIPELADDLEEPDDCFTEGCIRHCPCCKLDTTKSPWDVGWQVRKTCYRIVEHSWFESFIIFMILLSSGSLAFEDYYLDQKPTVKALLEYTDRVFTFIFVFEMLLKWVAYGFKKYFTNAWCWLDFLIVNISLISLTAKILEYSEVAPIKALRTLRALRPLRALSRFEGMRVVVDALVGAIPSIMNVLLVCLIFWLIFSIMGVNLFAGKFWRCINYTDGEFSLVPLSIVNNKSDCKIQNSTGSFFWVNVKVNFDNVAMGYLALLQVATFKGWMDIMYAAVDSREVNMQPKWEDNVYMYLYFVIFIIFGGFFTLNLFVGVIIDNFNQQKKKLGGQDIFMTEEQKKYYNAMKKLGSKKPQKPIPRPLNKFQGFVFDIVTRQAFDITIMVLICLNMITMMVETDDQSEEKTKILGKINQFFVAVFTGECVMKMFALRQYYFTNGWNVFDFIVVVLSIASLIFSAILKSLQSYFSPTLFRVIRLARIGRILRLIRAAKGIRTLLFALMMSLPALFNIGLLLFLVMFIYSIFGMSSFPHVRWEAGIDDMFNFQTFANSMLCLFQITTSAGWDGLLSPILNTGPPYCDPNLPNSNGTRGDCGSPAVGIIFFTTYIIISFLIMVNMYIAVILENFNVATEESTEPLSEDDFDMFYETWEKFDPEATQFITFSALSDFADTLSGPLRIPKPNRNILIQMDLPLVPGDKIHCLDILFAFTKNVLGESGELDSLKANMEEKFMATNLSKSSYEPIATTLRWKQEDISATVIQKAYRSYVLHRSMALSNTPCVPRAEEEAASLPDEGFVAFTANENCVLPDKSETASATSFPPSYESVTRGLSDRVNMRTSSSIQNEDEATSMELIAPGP
What is called IC50 is the concentration at which inhibition is half-maximal. Low values mean greater potency, high ones weaker potency. `O=C(Nc1cc[nH]c(=O)c1)c1ccc(C(F)(F)F)cc1OCC1CCOC1` (stereo not drawn) [Compound 121, N-(2-oxo-1,2-dihydropyridin-4-yl)-2-((tetrahydrofuran-3-yl)methoxy)-4-(trifluoromethyl)benzamide] displayed an IC50 of 19000 nM.
In the case of `O=C(Nc1cc[nH]c(=O)c1)c1ccc(C(F)(F)F)cc1OC1CCC1` [Compound 122, 2-cyclobutoxy-N-(2-oxo-1,2-dihydropyridin-4-yl)-4-(trifluoromethyl)benzamide], the IC50 came out at 4200 nM.
For `CC1(C)CC1COc1cc(C(F)(F)F)ccc1C(=O)Nc1cc[nH]c(=O)c1` (stereo not drawn) [Compound 124, 2-((2,2-dimethylcyclopropyl)methoxy)-N-(2-oxo-1,2-dihydropyridin-4-yl)-4-(trifluoromethyl)benzamide] the value was 485 nM; for `O=C(Nc1cc[nH]c(=O)c1)c1ccc(C(F)(F)F)cc1OC1C[C@@H]2C[C@@H]2C1` (stereo partly drawn) [Compound 125, 2-((1R,5S)-bicyclo[3.1.0]hexan-3-yloxy)-N-(2-oxo-1,2-dihydropyridin-4-yl)-4-(trifluoromethyl)benzamide], 17500 nM; for `O=C(Nc1cc[nH]c(=O)c1)c1ccc(C(F)(F)F)cc1OCC1CC1(F)F` (stereo not drawn) [Compound 126, 2-((2,2-difluorocyclopropyl)methoxy)-N-(2-oxo-1,2-dihydropyridin-4-yl)-4-(trifluoromethyl)benzamide], 1400 nM.
For `O=C(Nc1cc[nH]c(=O)c1)c1ccc(C(F)(F)F)cc1OC1CC2CCC1C2` (stereo not drawn) [Compound 127, 2-(bicyclo[2.2.1]heptan-2-yloxy)-N-(2-oxo-1,2-dihydropyridin-4-yl)-4-(trifluoromethyl)benzamide] the value was 1300 nM; for `O=C(Nc1cc[nH]c(=O)c1)c1ccc(C(F)(F)F)cc1OC1CCCCC1` [Compound 128, 2-(cyclohexyloxy)-N-(2-oxo-1,2-dihydropyridin-4-yl)-4-(trifluoromethyl)benzamide], 560 nM.
For `O=C(Nc1cc[nH]c(=O)c1)c1ccc(Cl)cc1OCCCC(F)(F)F` [Compound 129, 4-chloro-N-(2-oxo-1,2-dihydropyridin-4-yl)-2-(4,4,4-trifluorobutoxy)benzamide] the value was 940 nM; for `O=C(Nc1cc[nH]c(=O)c1)c1cc(C(F)(F)F)ccc1OCC1CCCC1` [Compound 130, 2-(cyclopentylmethoxy)-N-(2-oxo-1,2-dihydropyridin-4-yl)-5-(trifluoromethyl)benzamide], 5100 nM.
`CC(C)COc1ccc(C(F)(F)F)cc1C(=O)Nc1cc[nH]c(=O)c1` [Compound 131, 2-isobutoxy-N-(2-oxo-1,2-dihydropyridin-4-yl)-5-(trifluoromethyl)benzamide] returned an IC50 of 1500 nM.
For `O=C(Nc1cc[nH]c(=O)c1)c1cc(C(F)(F)F)ccc1OCCC(F)(F)F` [Compound 132, N-(2-oxo-1,2-dihydropyridin-4-yl)-5-(trifluoromethyl)-2-(3,3,3-trifluoropropoxy)benzamide] the value was 330 nM; for `O=C(Nc1cc[nH]c(=O)c1)c1cc(C(F)(F)F)ccc1OCCCC(F)(F)F` [Compound 133, N-(2-oxo-1,2-dihydropyridin-4-yl)-2-(4,4,4-trifluorobutoxy)-5-(trifluoromethyl)benzamide], 5800 nM.
With `CC1(C)CC1COc1ccc(C(F)(F)F)cc1C(=O)Nc1cc[nH]c(=O)c1` (stereo not drawn) [Compound 134, 2-((2,2-dimethylcyclopropyl)methoxy)-N-(2-oxo-1,2-dihydropyridin-4-yl)-5-(trifluoromethyl)benzamide] the figure was 21000 nM; with `O=C(Nc1cc[nH]c(=O)c1)c1cc(C(F)(F)F)ccc1OC1C[C@@H]2C[C@@H]2C1` (stereo partly drawn) [Compound 135], 1650 nM; with `O=C(Nc1cc[nH]c(=O)c1)c1cc(OC(F)(F)F)ccc1OCC1CCCC1` [Compound 136, 2-(cyclopentylmethoxy)-N-(2-oxo-1,2-dihydropyridin-4-yl)-5-(trifluoromethoxy)benzamide], 2600 nM.
With `O=C(Nc1cc[nH]c(=O)c1)c1cc(OC(F)(F)F)ccc1OC1CCCCC1` [Compound 137, 2-(cyclohexyloxy)-N-(2-oxo-1,2-dihydropyridin-4-yl)-5-(trifluoromethoxy)benzamide] the figure was 12600 nM.
`O=C(Nc1cc[nH]c(=O)c1)c1cc(OC(F)(F)F)ccc1OCCC(F)(F)F` [Compound 138, N-(2-oxo-1,2-dihydropyridin-4-yl)-5-(trifluoromethoxy)-2-(3,3,3-trifluoropropoxy)benzamide] showed an IC50 of 1450 nM.
With `O=C(Nc1cc[nH]c(=O)c1)c1cc(OC(F)(F)F)ccc1OCCCC(F)(F)F` [Compound 139, N-(2-oxo-1,2-dihydropyridin-4-yl)-2-(4,4,4-trifluorobutoxy)-5-(trifluoromethoxy)benzamide] the figure was 3050 nM.
For `CC1(C)CC1COc1ccc(OC(F)(F)F)cc1C(=O)Nc1cc[nH]c(=O)c1` (stereo not drawn) [Compound 140, 2-((2,2-dimethylcyclopropyl)methoxy)-N-(2-oxo-1,2-dihydropyridin-4-yl)-5-(trifluoromethoxy)benzamide] the value was 15000 nM; for `CC(C)(C)c1ccc(C(=O)Nc2cc[nH]c(=O)c2)c(Oc2ccc(C(F)(F)F)nc2)c1` [Compound 141, 4-(tert-butyl)-N-(2-oxo-1,2-dihydropyridin-4-yl)-2-((6-(trifluoromethyl)pyridin-3-yl)oxy)benzamide], 78 nM.
With `O=C(Nc1cc[nH]c(=O)c1)c1ccc(Cl)cc1Oc1ccc(C(F)(F)F)nc1` [Compound 143, 4-chloro-N-(2-oxo-1,2-dihydropyridin-4-yl)-2-((6-(trifluoromethyl)pyridin-3-yl)oxy)benzamide] the figure was 3350 nM; with `O=C(Nc1cc[nH]c(=O)c1)c1ccc(C(F)(F)F)cc1Oc1ccc(C(F)(F)F)nc1` [Compound 144, N-(2-oxo-1,2-dihydropyridin-4-yl)-4-(trifluoromethyl)-2-((6-(trifluoromethyl)pyridin-3-yl)oxy)benzamide], 615 nM; with `O=C(Nc1ccc(=O)[nH]c1)c1ccc(C(F)(F)F)cc1Oc1ccc(C(F)(F)F)nc1` [Compound 145, N-(6-oxo-1,6-dihydropyridin-3-yl)-4-(trifluoromethyl)-2-((6-(trifluoromethyl)pyridin-3-yl)oxy)benzamide], 5000 nM.
`Cc1ccc(Oc2cc(C(F)(F)F)ccc2C(=O)Nc2cc[nH]c(=O)c2)cn1` [Compound 146, 2-((6-methylpyridin-3-yl)oxy)-N-(2-oxo-1,2-dihydropyridin-4-yl)-4-(trifluoromethyl)benzamide] registered an IC50 of 4600 nM. This IC50 and that of the molecule before are within 1.5-fold of each other.
For `Cc1ncccc1Oc1cc(C(F)(F)F)ccc1C(=O)Nc1cc[nH]c(=O)c1` [Compound 147, 2-((2-methylpyridin-3-yl)oxy)-N-(2-oxo-1,2-dihydropyridin-4-yl)-4-(trifluoromethyl)benzamide] the value was 3800 nM.
For `Cn1ccc(NC(=O)c2ccc(C(C)(C)C)cc2Oc2ccc(C(F)(F)F)nc2)cc1=O` [Compound 148, 4-(tert-butyl)-N-(1-methyl-2-oxo-1,2-dihydropyridin-4-yl)-2-((6-(trifluoromethyl)pyridin-3-yl)oxy)benzamide] the value was 450 nM; for `Cn1cc(NC(=O)c2ccc(C(C)(C)C)cc2Oc2ccc(C(F)(F)F)nc2)ccc1=O` [Compound 149, 4-(tert-butyl)-N-(1-methyl-6-oxo-1,6-dihydropyridin-3-yl)-2-((6-(trifluoromethyl)pyridin-3-yl)oxy)benzamide], 1650 nM.
For `Cc1ncccc1Oc1ccc(C(F)(F)F)cc1C(=O)Nc1cc[nH]c(=O)c1` [Compound 150, 2-((2-methylpyridin-3-yl)oxy)-N-(2-oxo-1,2-dihydropyridin-4-yl)-5-(trifluoromethyl)benzamide] the value was 6600 nM.
Turning to `Cc1ncccc1Oc1ccc(OC(F)(F)F)cc1C(=O)Nc1cc[nH]c(=O)c1` [Compound 151, 2-((2-methylpyridin-3-yl)oxy)-N-(2-oxo-1,2-dihydropyridin-4-yl)-5-(trifluoromethoxy)benzamide], the IC50 amounted to 8400 nM.
With `Cc1cc(F)ccc1Oc1cc(C(F)(F)F)cc(C(F)(F)F)c1C(=O)Nc1cc[nH]c(=O)c1` [Compound 153, 2-(4-fluoro-2-methylphenoxy)-N-(2-oxo-1,2-dihydropyridin-4-yl)-4,6-bis(trifluoromethyl)benzamide] the figure was 10 nM.
With `COc1cc(F)ccc1Oc1cc(C(F)(F)F)cc(C(F)(F)F)c1C(=O)Nc1cc[nH]c(=O)c1` [Compound 154, 2-(4-fluoro-2-methoxyphenoxy)-N-(2-oxo-1,2-dihydropyridin-4-yl)-4,6-bis(trifluoromethyl)benzamide] the figure was 5 nM; with `O=C(Nc1cc[nH]c(=O)c1)c1c(Oc2ccc(F)cc2)cc(C(F)(F)F)cc1C(F)(F)F` [Compound 155, 2-(4-fluorophenoxy)-N-(2-oxo-1,2-dihydropyridin-4-yl)-4,6-bis(trifluoromethyl)benzamide], 11 nM; with `O=C(Nc1cc[nH]c(=O)c1)c1c(Oc2ccccc2)cc(C(F)(F)F)cc1C(F)(F)F` [Compound 156, N-(2-oxo-1,2-dihydropyridin-4-yl)-2-phenoxy-4,6-bis(trifluoromethyl)benzamide], 52 nM.
For `COc1cc(F)ccc1Oc1cc(C(F)(F)F)ccc1C(=O)Nc1cc[nH]c(=O)c1` [Compound 158, 2-(4-fluoro-2-methoxyphenoxy)-N-(2-oxo-1,2-dihydropyridin-4-yl)-4-(trifluoromethyl)benzamide] the value was 2 nM; for `O=C(Nc1cc[nH]c(=O)c1)c1ccc(C(F)(F)F)cc1OCc1cc(F)ccc1O` [Compound 159, 2-((5-fluoro-2-hydroxybenzyl)oxy)-N-(2-oxo-1,2-dihydropyridin-4-yl)-4-(trifluoromethyl)benzamide], 2600 nM.
Turning to `O=C(Nc1cc[nH]c(=O)c1)c1cc(F)ccc1Oc1ccc(OCCCC(F)(F)F)cc1` [Compound 160, 5-fluoro-N-(2-oxo-1,2-dihydropyridin-4-yl)-2-(4-(4,4,4-trifluorobutoxy)phenoxy)benzamide], the half-maximal inhibitory concentration (IC50) stood at 1390 nM.

For the origin of these results see patent publication US9051270B2, “Pyridone amides as modulators of sodium channels” (Vertex Pharmaceuticals Incorporated, priority 2013, dated 2015).
